According to patent publication US12365643B2, “Phenoxy carboxylic acid compounds and medical uses thereof” (QINGDAO RISING BIOTECHNOLOGY CO., LTD, priority 2018, dated 2025):

Key:
CPT1α = CPT1α protein level by Western blotting in HepG2; format: cell-based, human; conditions: 1 μM, 24 hours, HepG2, Western blotting (FIG. 6A)
From the text: (§1) Carnitine palmitoyltransferase (CPT1α) is a rate-limiting enzyme of fatty acid oxidation. When the body or tissues are lacking in energy, CPT1α catalyzes the entry of fatty acids into mitochondria for […], and at the same time, CPT1α is also involved in the regulation of fatty acid-induced insulin resistance and inflammation. Protein kinase B/glycogen synthase kinase 3β (AKT/GSK3β) signaling pathway and insulin receptor substrate 1 (IRS-1) are key signaling pathways that regulate glucose metabolism in response to insulin signal. Therefore, by determining the effects of compounds on the CPT1α protein level and the AKT, GSK3β and IRS-1 protein phosphorylation levels, it is possible to evaluate the regulatory effects of the compounds on glycolipid metabolism.
(§2) After human liver cancer cells HepG2 were incubated with the compound of the present application or the control drug at 1 μM for 24 hours, the CPT1α protein level and the AKT, GSK3β and IRS-1 phosphorylated protein levels in the cells were determined by Western blotting; after gray-scale scanning by using Image J15.0.1, normalization was performed by using β-tubulin protein level as internal control, and the quantitative analysis results were shown in FIG. 6.

[1] = Metabolism of BJMU-2 by the liver
phosphorylated GSK3β = experiment: Phosphorylated GSK3β level by Western blotting in HepG2; format: cell-based, human; conditions: 1 μM, 24 hours, HepG2, Western blotting (FIG. 6B)
From the text: as §1, §2

phosphorylated IRS-1 = experiment: Phosphorylated IRS-1 level by Western blotting in HepG2; format: cell-based, human; conditions: 1 μM, 24 hours, HepG2, Western blotting (FIG. 6C)
From the text: as §1, §2

SMILES | CPT1α protein level (CPT1α) | metabolism by the liver [1] | phosphorylation level of GSK3β (phosphorylated GSK3β) | phosphorylation level of IRS-1 (phosphorylated IRS-1)
Cc1cc(OCCCC(C)(C)C(=O)O)c(C)cc1Cl [BJMU-1, 5-(4-chloro-2,5-dimethylphenoxy)-2,2-dimethylpentanoic acid] | significantly increased CPT1α protein level | – | – | –
Cc1cc(OCCCC(C)(C)C(=O)O)c(C)cc1Br [BJMU-2, 5-(4-bromo-2,5-dimethylphenoxy)-2,2-dimethylpentanoic acid] | significantly increased CPT1α protein level | could be metabolized by the liver to produce metabolites BJMU-415 and 502 | significantly increased the phosphorylation level of GSK3β | significantly increased the phosphorylation level of IRS-1
Cc1cc(OCCCC(C)(C)C(=O)O)c(C)cc1F [BJMU-3, 5-(4-fluoro-2,5-dimethylphenoxy)-2,2-dimethylpentanoic acid] | – | – | – | significantly increased the phosphorylation level of IRS-1
